# From patent publication US11661410B2 (GLOBAL BLOOD THERAPEUTICS, INC., priority 2017, dated 2023)
# Counter-ions that a name gives are not always drawn. Like-named read-outs stand apart in the source and are kept apart here.
# Target: G9a (Homo sapiens (Human), UniProt Q96KQ7)
# Assay: G9a AlphaLISA enzymatic activity assay
# Type: biochemical
# [1] = G9a AlphaLISA, negative log of the IC50 value in molar
# Sequence of G9a (Q96KQ7 whole entry): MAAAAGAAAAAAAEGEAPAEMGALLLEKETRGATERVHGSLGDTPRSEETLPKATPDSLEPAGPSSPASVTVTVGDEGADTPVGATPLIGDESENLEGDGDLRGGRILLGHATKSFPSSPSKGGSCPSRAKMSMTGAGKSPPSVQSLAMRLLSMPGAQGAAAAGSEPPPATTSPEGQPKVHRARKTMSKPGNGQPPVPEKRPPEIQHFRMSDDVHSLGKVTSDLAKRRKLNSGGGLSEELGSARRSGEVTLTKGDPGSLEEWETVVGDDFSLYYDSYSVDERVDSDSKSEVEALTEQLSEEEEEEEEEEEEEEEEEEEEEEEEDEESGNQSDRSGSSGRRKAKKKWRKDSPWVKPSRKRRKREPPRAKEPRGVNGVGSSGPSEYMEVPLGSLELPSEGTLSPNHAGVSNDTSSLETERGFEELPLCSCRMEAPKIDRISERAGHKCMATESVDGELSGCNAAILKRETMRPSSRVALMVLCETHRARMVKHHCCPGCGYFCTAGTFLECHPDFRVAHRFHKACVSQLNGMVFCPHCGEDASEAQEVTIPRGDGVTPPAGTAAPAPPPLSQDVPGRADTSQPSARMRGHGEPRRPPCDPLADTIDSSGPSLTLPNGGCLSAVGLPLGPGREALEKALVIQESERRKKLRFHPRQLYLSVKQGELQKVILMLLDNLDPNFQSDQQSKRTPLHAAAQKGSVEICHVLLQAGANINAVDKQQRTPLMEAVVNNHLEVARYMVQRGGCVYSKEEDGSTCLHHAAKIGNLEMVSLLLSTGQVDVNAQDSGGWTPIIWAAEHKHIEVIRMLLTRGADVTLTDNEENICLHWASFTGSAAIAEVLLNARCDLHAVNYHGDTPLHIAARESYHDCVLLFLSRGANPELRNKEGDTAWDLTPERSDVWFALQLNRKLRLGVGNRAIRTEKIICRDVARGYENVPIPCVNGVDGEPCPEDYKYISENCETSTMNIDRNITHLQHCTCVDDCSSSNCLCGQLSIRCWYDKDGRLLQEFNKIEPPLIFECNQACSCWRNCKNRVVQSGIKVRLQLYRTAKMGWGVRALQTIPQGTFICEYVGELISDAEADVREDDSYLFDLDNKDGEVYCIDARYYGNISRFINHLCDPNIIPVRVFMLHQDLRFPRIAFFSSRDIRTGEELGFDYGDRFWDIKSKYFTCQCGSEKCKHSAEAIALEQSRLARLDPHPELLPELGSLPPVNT
Structure (SMILES),pIC50 [1],pIC50
COc1cc2nc3c(c(NC4CCN(c5ccc(F)cc5)CC4)c2cc1OC)CCC3,6.85,–
COc1cc2nc3c(c(NCC4CC(N(C)C)C4)c2cc1OC)CCC3 (centres unmarked),5.24,–
COc1cc2nc3c(c(N[C@@H]4CCCN(C)C4)c2cc1OC)CCC3,–,5.48
COc1cc2nc3c(c(NC4CCN(c5ccccc5Cl)CC4)c2cc1OC)CCC3,–,6.72
"COc1cc2nc3c(c(NC(C)C)c2cc1OC)CCC3 [Example 1, 6,7-dimethoxy-N-(propan-2-yl)-1H,2H,3H-cyclopenta[b]quinolin-9-amine formate]",5.97,–
"CCCOc1cc2nc3c(c(NC)c2cc1OC)CCC3 [Example 2, bis(formic acid)]",5,–
CNc1c2c(nc3cc(OCCCOC)c(OC)cc13)CCC2 [Example 3],5.53,–
"CCOCCOc1cc2nc3c(c(NC)c2cc1OC)CCC3 [Example 4, bis(formic acid)]",5.57,–
COc1cc2c(NC(C)C)c3c(nc2cc1OCCOCCO)CCC3 [Example 6],5,–
COc1cc2nc3c(c(NCC4CN(C)C4)c2cc1OC)CCC3 [Example 11],7.49,–
COc1cc2nc3c(c(NC4CN(C(=O)OC(C)(C)C)C4)c2cc1OC)CCC3 [Example 12],5.5,–
COc1cc2nc3c(c(NC4CC5(C4)CN(C(=O)OC(C)(C)C)C5)c2cc1OC)CCC3 [Example 17],5.5,–
"COc1cc2nc3c(c(NC4CC5(CNC5)C4)c2cc1OC)CCC3 [Example 19, bis(formic acid)]",5,–
CC(C)N1CCC(Nc2c3c(nc4cc5c(cc24)OCO5)CCC3)CC1 [Example 20],7.53,–
COc1cc2c(NC(C)C)c3c(nc2cc1OCCCCCO)CCC3 [Example 21],5.3,–
COc1cc2nc3c(c(N[C@@H]4CCCNC4)c2cc1OC)CCC3 [Example 29],6.81,–
COc1cc2nc3c(c(N[C@H]4CCCN(C)C4)c2cc1OC)CCC3 [Example 30],7.83,–
COc1cc2c(NC(C)C)c3c(nc2cc1OCCCC(C)O)CCC3 (centres unmarked) [Example 31],6.23,–
COc1cc2c(NC3CCN(C(C)C)CC3)c3c(nc2cc1O)CCC3 [Example 35],7.94,–
COc1cc2nc3c(c(NCc4cn(C)cn4)c2cc1OC)CCC3 [Example 41],–,5.32

# Continued, in another order:
pIC50 [1],Structure (SMILES),pIC50
7.31,COc1cc2nc3c(c(NC4CCN(C)CC4)c2cc1OC)CCC3 [Example 9],–
7.66,COc1cc2nc3c(c(NC4CCCNC4)c2cc1OC)CCC3 (centres unmarked) [Example 10],–
7.22,COc1cc2nc3c(c(NC4CNC4)c2cc1OC)CCC3 [Example 13],–
5.55,COc1cc2nc3c(c(NC4CCN(c5ccccc5)CC4)c2cc1OC)CCC3 [Example 14],–
7.67,CCN1CCC(Nc2c3c(nc4cc(OC)c(OC)cc24)CCC3)CC1 [Example 15],–
7.27,"COc1cc2nc3c(c(NC4CCN(C5CCOCC5)CC4)c2cc1OC)CCC3 [Example 16, hydrochloride]",–
6.21,COc1cc2nc3c(c(NC4CCN(c5ccncc5)CC4)c2cc1OC)CCC3 [Example 22],–
7.05,COc1cc2nc3c(c(NC4CCN(c5cccnc5)CC4)c2cc1OC)CCC3 [Example 23],–
6.11,COc1cc2nc3c(c(NC4CCN(c5ccccn5)CC4)c2cc1OC)CCC3 [Example 24],–
5.87,COc1cc2nc3c(c(NC4CCN(c5cccc(F)c5)CC4)c2cc1OC)CCC3 [Example 25],–
7.53,COc1cc2nc3c(c(NC4CCN(c5ccccc5F)CC4)c2cc1OC)CCC3 [Example 26],–
8.08,CCN1CC(Nc2c3c(nc4cc(OC)c(OC)cc24)CCC3)C1 [Example 27],–
6.66,COc1cc2nc3c(c(N[C@H]4CCCNC4)c2cc1OC)CCC3 [Example 28],–
5.78,COc1cc2nc3c(c(NC4CCN(C(C)C)CC4)c2cc1OC)CCCCC3 [Example 33],–
5.42,COc1cc2c(NC3CCN(C(C)C)CC3)c3c(nc2cc1OC(F)F)CCC3 [Example 36],–
